Measurements as given in patent US12366579B2, “Sulfur-heterocycle exchange chemistry and uses thereof” (University of Virginia Patent Foundation, priority 2019, dated 2025).

Experiments:
[1] = molecular target: T1, recombinant GSTP1 lysates (Homo sapiens, UniProt P09211); assay: GSTP1 biochemical substrate assay (GSH conjugation to BDNB); conditions: inhibitor 30 min at 37° C.; n=3; read-out: IC50, in vitro potency against GSTP1 by GSH substrate assay
T1 construct: FLAG (C); host or cells: HEK293T, transient transfection; soluble proteome used unpurified
Protocol: GSTP1 Biochemical Substrate Assay
Recombinant GSTP1-HEK293T soluble cell proteomes were diluted to 1 mg ml^−1 in assay buffer (100 mM NaH2PO4, pH 7.0). Samples were treated with inhibitor at indicated concentrations for 30 min at 37° C. GSH stock solution (250 mM in water) was diluted to 4 mM in assay buffer and 25 μl of diluted GSH solution was added to each sample. A substrate stock solution of 75 mM 1-bromo-2,4-dinitrobenzene […] in ethanol was diluted to 2 mM in assay buffer. Samples (25 μl) were aliquoted into a 96-well plate and spun briefly via centrifuge. Next, 50 μl of 2 mM BDNB was added to each well and the reaction was monitored in kinetic mode by measuring absorbance at 340 nm for 10 min on a BMG Labtech CLARIOstar plate reader (BMG Labtech, Cary, North Carolina, United States of America).

human DPP3 (hDPP3) = molecular target: T2, human DPP3 (hDPP3) (Homo sapiens, UniProt Q9NY33); assay: Gel-based competitive chemical proteomic screen with HHS-482, recombinant hDPP3-HEK293T soluble proteomes; assay type: binding; conditions: 50 μM fragment, 37° C., 30 min; also substantial proteome cross-reactivity
T2 construct: FLAG (C); host or cells: HEK293T, transient transfection; soluble proteome used unpurified
T2 sequence (Q9NY33 1-737): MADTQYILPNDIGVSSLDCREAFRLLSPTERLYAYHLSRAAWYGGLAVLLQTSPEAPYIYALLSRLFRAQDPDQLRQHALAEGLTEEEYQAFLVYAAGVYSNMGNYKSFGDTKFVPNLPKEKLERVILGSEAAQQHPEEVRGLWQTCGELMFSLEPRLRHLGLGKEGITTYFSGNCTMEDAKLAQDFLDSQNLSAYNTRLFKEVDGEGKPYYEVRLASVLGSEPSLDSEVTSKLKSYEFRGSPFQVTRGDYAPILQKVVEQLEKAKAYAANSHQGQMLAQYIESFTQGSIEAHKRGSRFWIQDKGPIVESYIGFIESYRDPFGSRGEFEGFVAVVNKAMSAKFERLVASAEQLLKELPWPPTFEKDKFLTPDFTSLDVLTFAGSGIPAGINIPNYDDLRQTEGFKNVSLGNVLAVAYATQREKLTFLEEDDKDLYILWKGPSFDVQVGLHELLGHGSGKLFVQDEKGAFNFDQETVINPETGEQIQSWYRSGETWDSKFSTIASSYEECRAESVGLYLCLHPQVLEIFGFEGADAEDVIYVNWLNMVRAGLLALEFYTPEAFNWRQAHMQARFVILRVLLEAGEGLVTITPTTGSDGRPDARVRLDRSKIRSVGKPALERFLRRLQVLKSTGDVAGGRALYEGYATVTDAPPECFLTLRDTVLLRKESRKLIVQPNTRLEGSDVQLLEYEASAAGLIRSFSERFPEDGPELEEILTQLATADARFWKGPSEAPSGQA
Protocol: (§1) Gel-Based Chemical Proteomic Assay
(§2) Cell pellets were lysed in PBS and fractionated (100,000×g, 45 min, 4° C.) to generate soluble and membrane fractions. Protein concentrations were determined using Bio-Rad DC protein assay (Bio-Rad Laboratories, Inc., Hercules, California, United States of America), and adjusted to 1 mgml^−1 in PBS. Proteome samples (49 μl aliquots) were treated with DMSO vehicle or indicated concentration of SuTEx fragment (1 μL, 50× stock in DMSO) for 30 min at 37° C. Samples were then treated with HHS-482 probe (1 μL, 2.5 mM stock in DMSO) for 30 min at 37° C. Probe labeled samples were conjugated to rhodamine-azide (1 μL, 1.25 mM stock; final concentration of 25 μM) by copper-catalyzed azide-alkyne cycloadditions (CuAAC) for 1 h at room temperature followed by SDS-PAGE and in-gel fluorescence scanning as previously described^57.

human GSTP1 (hGSTP1) = molecular target: T3, human GSTP1 (hGSTP1) (Homo sapiens, UniProt P09211); assay: Gel-based competitive chemical proteomic screen with HHS-482, recombinant hGSTP1-HEK293T soluble proteomes; assay type: binding; conditions: fragment 50 μM, 30 min, 37° C.
T3 construct: FLAG (C); host or cells: HEK293T, transient transfection; soluble proteome used unpurified
Protocol: as §1, §2

GSTP1 Y8 = molecular target: T4, GSTP1 Y8 (Homo sapiens, UniProt P09211); assay: Quantitative chemical proteomics of live SILAC DM93 cells treated with SuTEx fragments; assay type: cell-based; conditions: 50 μM compound, 1.5 hr, 37° C.
T4 construct: endogenous in cells; host or cells: DM93 melanoma cells (SILAC)
Protocol: Live Cell Evaluation of Sulfonyl-Triazole Fragments
(§3) Cells grown to ˜90% confluency in 10 cm plates were treated with DMSO vehicle or SuTEx fragment (10 μl of 1,000× stock) in serum-free media for the indicated concentrations and times at 37° C. with 5% CO2. After treatment, cells were washed with cold PBS twice before collection and preparation for gel-based chemical proteomic evaluation as described above. For LC-MS studies, protein concentrations were normalized to 2.3 mg ml^−1 and 432 μl (for 1 mg final protein amount) were used for sample preparation as detailed below.
Heavy and light proteomes (432 μl of each) were diluted to 2.3 mg ml^−1 in PBS and sample aliquots (432 μl) were treated with SuTEx fragment at the indicated concentrations (5 μl, 100× stock in DMSO), mixed gently and incubated for 30 min at 37° C. Samples were then treated with HHS-482 (5 μL, 5 mM stock in DMSO) for 30 min at 37° C. Probe-modified proteomes were conjugated to desthiobiotin-PEG3-azide followed by enrichment of probe-modified peptides for nano-electrospray ionization-LC-MS/MS analyses as previously described^57.
Next, SILAC DM93 cells were treated with JWB152 or JWB198 to determine whether these SuTEx fragments could ligand Y8 of endogenous GSTP1 in living systems (50 μM compound, 1.5 hr, 37° C.). Cells were pretreated with DMSO vehicle or SuTEx fragments followed by cells lysis, HHS-482 labeling of proteomes, and quantitative chemical proteomics.

GSTP1 = molecular target: T5, GSTP1 (Homo sapiens, UniProt P09211); assay: Gel-based evaluation of proteomes from recombinant GSTP1-HEK293T cells treated with SuTEx fragments; assay type: cell-based; conditions: 50 μM compounds, 4 hr
T5 construct: FLAG (C); expressed in transfected cells; host or cells: HEK293T
Protocol: as §2, §3

[2] = molecular target: T6, membrane proteins in human cell proteomes (Homo sapiens, UniProt P51970); assay: Chemical proteomic identification of membrane protein lysine sites modified by TH211; assay type: binding; conditions: NDUA8 human, Uniprot P51970; amino acid modified K
T6 construct: endogenous in cells
Protocol: (§4) The light proteome aliquots (2.3 mg/mL, 432 μL) were treated with the probe (5 μL, 100× fresh stock in DMSO) and the heavy proteome aliquots were treated with either the same probe or DMSO (no probe) at 37° C. for 1 h. Then the samples were subjected to click reaction with the desthiobiotin-PEG3-azide (10 mM in DMSO, 10 μL, final concentration 200 μM) in the presence of TCEP (50 mM, 10 μL), TBTA (1.7 mM, 33 μL) and CuSO4 (50 mM, 10 μL) at room temperature for 1 h. The light and the heavy were mixed in the chloroform-methanol extraction step. The subsequent steps including reduction with dithiothreitol, alkylation with iodoacetamide, digestion with Trypsin/Lys-C, enrichment with avidin beads were conducted as previously described.^72,51
(§5) Data acquisition: The enriched peptide samples were analyzed by LC-MS/MS on an Easy-nLC 1200 (Thermo Scientific, Waltham, Massachusetts, United States of America) coupled with an Orbitrap Q Exactive Plus mass spectrometer (Thermo Scientific, Waltham, Massachusetts, United States of America). […] A top 10 data-dependent acquisition method was used, which consisted of one full scan […] scan (m/z 375-1,500) followed by ten MS2 scans of the most abundant ions recorded in the […] scan.
(§6) Data analysis: Identification of peptides and target proteins from the LC-MS/MS raw data was achieved using the Byonic software package (Protein Metrics Inc., Cupertino, California, United States of America) to search against a modified human protein database (UniProt human protein database, angiotensin I and vasoactive intestinal peptide standards; 40660 proteins) with parameters previously described.^72 Identification of probe-modified peptides was accomplished with variable (common) modification of +635.27374 Da for TH211, +608.26284 for TH214, +578.25228 for TH216 on tyrosine and lysine residues. Other added mass such as variable methionine oxidation (+15.9949 Da), fixed cysteine carbamidomethylation (+57.02146 Da) and the SILAC heavy amino acids (+10.0083 Da for R, +8.0142 Da for K) were included in search. The results from Byonic search were imported into Skyline-daily to determine SILAC ratio (SR) of light/heavy peptides.^51 To account for variations in mixing and sample preparation, SRs of peptide from probe/no-probe (the light was treated with the probe while the heavy was treated with DMSO) were normalized to those from probe/probe (both the light and the heavy were treated with the probe). Unless otherwise stated, the results from Skyline-daily output were filtered in R to keep peptides of high quality that meet the following criteria: Byonic score ≥300; a precursor mass error within 5 ppm; normalized SR≥5, with both isotop dot-product (iDOTP) and ratio dot-product (rDOTP)≥0.8. Comparison of probe-modified sites across all probes and cells were performed using the R package ggplot2 and Venn diagrams were generated with the VennDiagram R package.^72 Other bioinformatics analysis such as the domain enrichment analysis and the DrugBank analysis were performed as previously described.^72

[3] = molecular target: T7, membrane proteins in human cell proteomes (Homo sapiens, UniProt Q02750); assay: as above; assay type: binding; conditions: MP2K1 human, Uniprot Q02750; amino acid modified K
T7 construct: endogenous in cells
Protocol: as §4, §5, §6

[4] = molecular target: T8, membrane proteins in human cell proteomes (Homo sapiens, UniProt Q9BQB6); assay: as above; assay type: binding; conditions: VKOR1 human, Uniprot Q9BQB6, amino acid modified K
T8 construct: endogenous in cells
Protocol: as §4, §5, §6

[5] = molecular target: T9, membrane proteins in human cell proteomes (Homo sapiens, UniProt Q9P032); assay: as above; assay type: binding; conditions: NDUF4 human, Uniprot Q9P032; amino acid modified K
T9 construct: endogenous in cells
Protocol: as §4, §5, §6

[6] = system: membrane proteins in human cell proteomes; assay: as above; assay type: binding; conditions: amino acid modified K
Protocol: as §4, §5, §6

[7] = molecular target: T10, recombinant human diacylglycerol kinase-alpha (DGKA) (Homo sapiens, UniProt P23743); assay: Gel-based probe labeling of recombinant DGKA with TH SuTEx probes; assay type: binding; conditions: FIG. 39D, left panel
T10 construct: FLAG (N); made in house; host or cells: HEK293T, transient transfection; lysate used unpurified
Protocol: as §1
Proteome aliquots (2 mg/mL, 49 μL) were treated with probes at indicated concentration (1 μL, 50× stock in DMSO) at 37° C. for 1 h. The subsequent conjugation with fluorophore was accomplished by copper-catalyzed azide-alkyne cycloaddition (CuAAC) with rhodamine-azide (TAMRA-azide, 1.25 mM, 1 μL, final concentration of 25 μM) in the presence of tris(2-carboxyethyl)phosphine (TCEP, 50 mM fresh in water, 1 μL, final concentration of 1 mM), tris[(1-benzyl-1H-1,2,3-triazol-4-yl)methyl]amine (TBTA, 1.7 mM in 4:1 t-butanol/DMSO, 3 μL, final concentration of 100 μM) and CuSO4 (50 mM, 1 μL, final concentration of 1 mM). For samples of live cell treatment, it started with click reaction without the step of the probe treatment in vitro. After 1 h incubation at room temperature, reactions were quenched by adding 4×SDS-PAGE loading buffer and beta-mercaptoethanol (17 μL) and samples were resolved by SDS-PAGE followed by in-gel fluorescence scanning.

T8 sequence (Q9BQB6 whole entry): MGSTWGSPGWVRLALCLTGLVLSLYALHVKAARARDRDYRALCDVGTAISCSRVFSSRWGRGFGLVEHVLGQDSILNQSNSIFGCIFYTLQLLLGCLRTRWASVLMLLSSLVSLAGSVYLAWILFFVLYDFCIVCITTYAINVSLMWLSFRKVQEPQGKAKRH
T9 sequence (Q9P032 whole entry): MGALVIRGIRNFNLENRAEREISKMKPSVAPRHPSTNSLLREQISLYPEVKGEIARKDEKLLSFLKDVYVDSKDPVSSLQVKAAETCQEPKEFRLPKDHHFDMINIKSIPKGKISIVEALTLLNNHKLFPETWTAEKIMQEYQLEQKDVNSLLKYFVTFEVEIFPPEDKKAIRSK
T5 sequence (P09211 whole entry, the tested form may be a part): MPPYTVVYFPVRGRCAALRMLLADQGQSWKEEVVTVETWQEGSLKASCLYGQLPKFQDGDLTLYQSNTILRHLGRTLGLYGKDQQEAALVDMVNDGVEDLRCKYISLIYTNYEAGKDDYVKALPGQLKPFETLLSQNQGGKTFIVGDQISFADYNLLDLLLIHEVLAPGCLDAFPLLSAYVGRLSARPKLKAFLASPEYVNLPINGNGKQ
T1 sequence (P09211 whole entry): as the sequence (P09211 whole entry, the tested form may be a part) above
T3 sequence (P09211 whole entry, the tested form may be a part): as above
T4 sequence (P09211 whole entry, the tested form may be a part): as above
T6 sequence (P51970 whole entry): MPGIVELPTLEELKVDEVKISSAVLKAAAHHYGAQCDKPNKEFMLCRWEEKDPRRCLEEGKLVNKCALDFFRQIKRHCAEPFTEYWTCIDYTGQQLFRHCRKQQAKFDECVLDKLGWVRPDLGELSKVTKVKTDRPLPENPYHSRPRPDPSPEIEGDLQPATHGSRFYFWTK
T10 sequence (P23743 whole entry): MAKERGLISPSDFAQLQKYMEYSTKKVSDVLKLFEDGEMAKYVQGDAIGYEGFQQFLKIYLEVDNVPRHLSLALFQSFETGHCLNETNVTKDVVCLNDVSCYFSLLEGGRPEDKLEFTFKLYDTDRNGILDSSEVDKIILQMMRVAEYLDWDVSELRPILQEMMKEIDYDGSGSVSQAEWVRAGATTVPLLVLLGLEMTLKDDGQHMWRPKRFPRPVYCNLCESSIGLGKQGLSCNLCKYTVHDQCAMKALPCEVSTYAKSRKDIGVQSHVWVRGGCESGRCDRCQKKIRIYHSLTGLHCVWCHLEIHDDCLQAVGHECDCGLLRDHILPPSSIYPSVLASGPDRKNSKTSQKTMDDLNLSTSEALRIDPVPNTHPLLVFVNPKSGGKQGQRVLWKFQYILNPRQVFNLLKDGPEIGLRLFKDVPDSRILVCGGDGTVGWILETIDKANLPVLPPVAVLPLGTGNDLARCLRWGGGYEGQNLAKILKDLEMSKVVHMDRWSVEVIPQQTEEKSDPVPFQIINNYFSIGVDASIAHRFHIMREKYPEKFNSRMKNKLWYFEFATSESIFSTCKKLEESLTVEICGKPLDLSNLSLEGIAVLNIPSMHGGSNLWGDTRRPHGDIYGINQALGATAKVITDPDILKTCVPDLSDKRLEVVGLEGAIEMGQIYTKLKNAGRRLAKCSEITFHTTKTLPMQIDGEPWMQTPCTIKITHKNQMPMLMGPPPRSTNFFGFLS
T7 sequence (Q02750 whole entry): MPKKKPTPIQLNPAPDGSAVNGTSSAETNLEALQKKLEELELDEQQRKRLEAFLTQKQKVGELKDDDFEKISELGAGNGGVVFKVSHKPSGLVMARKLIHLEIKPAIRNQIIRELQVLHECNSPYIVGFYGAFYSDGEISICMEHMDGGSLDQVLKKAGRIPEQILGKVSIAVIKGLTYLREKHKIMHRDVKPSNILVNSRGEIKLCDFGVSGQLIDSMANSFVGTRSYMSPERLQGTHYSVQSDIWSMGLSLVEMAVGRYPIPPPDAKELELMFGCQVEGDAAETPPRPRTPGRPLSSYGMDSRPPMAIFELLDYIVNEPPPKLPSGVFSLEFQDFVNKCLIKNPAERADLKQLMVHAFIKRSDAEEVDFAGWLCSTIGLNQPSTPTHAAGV

IC50 [1]	competition against recombinant DPP3 (human DPP3 (hDPP3))	blockade of HHS-482 labeling of native GSTP1 Y8 in live cells (GSTP1 Y8)	HHS-482 labeling of GSTP1 after live cell treatment (GSTP1)	Modified Amino Acid Number [2]	Modified Amino Acid Number [3]	Modified Amino Acid Number ([4]; lysine residue 152)	Modified Amino Acid Number ([4]; lysine residue 159)	Modified Amino Acid Number [5]	fluorescent labeling of recombinant human DGKA [7]	SMILES	block of HHS-482 labeling of GSTP1 (human GSTP1 (hGSTP1))	Modified Amino Acid Number ([6]; NDUA5 human, Uniprot Q16718)	Modified Amino Acid Number ([6]; NDUB3 human, Uniprot O42676)	Modified Amino Acid Number ([6]; NU5M human, Uniprot P03915)	Modified Amino Acid Number ([6]; PYRD human, Uniprot Q02127)
23 µM	potent competition	~20%	reduced HHS-482 labeling							N#Cc1ccc(S(=O)(=O)n2cnc(-c3ccc(C(F)(F)F)cc3)n2)cc1 [JWB152, 4-((3-(4-(Trifluoromethyl)phenyl)-1H-1,2,4-triazol-1-yl)sulfonyl)benzonitrile]	block HHS-482 labeling to levels comparable with Y8F mutant				
				172	97	152	159	24	concentration dependent manner	C#CCNC(=O)c1ccc(S(=O)(=O)n2cc(CCN3CCC(=C(c4ccc(F)cc4)c4ccc(F)cc4)CC3)nn2)cc1 [TH211, 4-((4-(2-(4-(Bis(4-fluorophenyl)methylene)piperidin-1-yl)ethyl)-1H-1,2,3-triazol-1-yl)sulfonyl)-N-(prop-2-yn-1-yl)benzamide]		30	39	455	166
